Experimental data taken from patent US20060264419A1 (priority 2003, published 2006).

Each molecule was assayed against 5-HT2A receptors (Rattus norvegicus, UniProt P14842) (assay: in-vitro affinity to 5-HT2A receptors, displacement of [3H]ketanserine (Example A1)). Details: read-out: HT2A IC50.
Chain of 5-HT2A receptors (P14842 whole entry): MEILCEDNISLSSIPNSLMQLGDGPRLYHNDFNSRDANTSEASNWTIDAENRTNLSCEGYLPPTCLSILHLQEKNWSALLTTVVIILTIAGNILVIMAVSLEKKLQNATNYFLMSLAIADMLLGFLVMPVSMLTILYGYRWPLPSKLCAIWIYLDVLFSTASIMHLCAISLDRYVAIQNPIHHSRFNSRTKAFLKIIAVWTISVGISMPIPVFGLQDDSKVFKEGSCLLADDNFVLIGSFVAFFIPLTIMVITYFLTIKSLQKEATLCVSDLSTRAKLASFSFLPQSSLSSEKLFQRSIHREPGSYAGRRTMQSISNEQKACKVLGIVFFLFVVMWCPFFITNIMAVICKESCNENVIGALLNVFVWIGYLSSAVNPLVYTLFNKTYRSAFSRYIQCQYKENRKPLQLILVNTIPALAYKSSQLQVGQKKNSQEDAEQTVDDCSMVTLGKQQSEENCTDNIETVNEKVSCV
Type: binding
From the text: The 5-HT2A receptors are exposed both to [^3H]ketanserine (a substance which is known for its affinity to the receptor) and also to the test compound. The decrease in the affinity of [^3H]ketanserine to the receptor is an indication of the affinity of the test substance to the 5-HT2A receptor.
With Fc1ccccc1-c1c(CNC2CN3CCC2CC3)cnn1-c1ccc(-c2ccccc2)cc1 (centres unmarked) [Example 991, (1-Azabicyclo[2.2.2]oct-3-yl)-[1-biphenyl-4-yl-5-(2-fluorophenyl)-1H-pyrazol-4-ylmethyl]-amine] the IC50 was 140 nM. Work on CN1CCN(Cc2cnn(-c3ccc(-c4cccc(C#N)c4)cc3)c2-c2ccccc2F)CC1 [Example 993, 4′-[5-(2-Fluorophenyl)-4-(4-methylpiperazin-1-ylmethyl)pyrazol-1-yl]biphenyl-3-carbonitrile] yielded an IC50 of 140 nM. For OC1CCN(Cc2cnn(-c3ccc(C(F)(F)F)cn3)c2-c2ccccc2F)C1 (centres unmarked) [Example 1050, 1-[5-(2-Fluorophenyl)-1-(5-trifluoro-methylpyridin-2-yl)-1H-pyrazol-4-ylmethyl]pyrrolidin-3-ol], the IC50 was 390 nM. Work on CC1CN(Cc2cnn(-c3ccc(-c4ccccc4)cc3)c2-c2ccccc2F)CC(C)N1 (centres unmarked) [Example 979, 1-[1-Biphenyl-4-yl-5-(2-fluorophenyl)-1H-pyrazol-4-ylmethyl]-3,5-dimethylpiperazine] yielded an IC50 of 100 nM. For Fc1ccc(CCN2CCN(Cc3cnn(-c4ccccn4)c3-c3ccccc3F)CC2)cc1 [Example 950, 1-[2-(4-Fluorophenyl)ethyl]-4-[5-(2-fluoro-phenyl)-1-pyridin-2-yl-1H-pyrazol-4-ylmethyl]-piperazine], the IC50 was 53 nM. Work on OCC(Cc1cnc[nH]1)NCc1cnn(-c2ccc(-c3ccccc3)cc2)c1-c1ccccc1F (centres unmarked) [Example 1045, 2-{[1-Biphenyl-4-yl-5-(2-fluoro-phenyl)-1H-pyrazol-4-ylmethyl]amino}-3-(3H-imidazol-4-yl)propan-1-ol] yielded an IC50 of 370 nM. For Fc1ccccc1-c1c(CN2CCN(Cc3ccncc3)CC2)cnn1-c1ccc(-c2ccccc2)cc1 [Example 968, 1-[1-Biphenyl-4-yl-5-(2-fluorophenyl)-1H-pyrazol-4-ylmethyl]-4-pyridin-4-ylmethylpiperazine], the IC50 was 75 nM. Fc1ccccc1-c1c(CNC2C3CNCC32)cnn1-c1ccc(-c2ccccc2)cc1 (centres unmarked) [Example 1041, (3-Azabicyclo[3.1.0]hex-6-yl)-[1-biphenyl-4-yl-5-(2-fluorophenyl)-1H-pyrazol-4-ylmethyl]-amine] gave an IC50 of 320 nM. O=C(NCCO)C1CCN(Cc2cnn(-c3ccc(-c4ccccc4)cc3)c2-c2ccccc2F)CC1 [Example 1030, N-(2-Hydroxyethyl)-1-[1-biphenyl-4-yl-5-(2-fluorophenyl)-1H-pyrazol-4-ylmethyl]piperidine-4-carboxamide] gave an IC50 of 270 nM.

Same assay, conditions: target not given; description names affinity to 5-HT2A receptors; read-out: IC50
Work on CN1CCN(Cc2cnn(-c3ccc(-c4cc(F)ccc4F)cc3)c2-c2ccccc2)CC1 [(68), 1-[1-(2′,5′-Difluorobiphenyl-4-yl)-5-phenyl-1H-pyrazol-4-ylmethyl]-4-methylpiperazine] yielded an IC50 of 110 nM. With O=C1NCN(c2ccccc2)C12CCN(Cc1cnn(-c3ccc(-c4ccccc4)cc3)c1-c1ccccc1F)CC2 [(94), 8-[1-Biphenyl-4-yl-5-(2-fluorophenyl)-1H-pyrazol-4-ylmethyl]-1-phenyl-1,3,8-triazaspiro[4.5]decan-4-one] the IC50 was 400 nM. NC(=O)C1CCCN1Cc1cnn(-c2ccc(-c3ccccc3)cc2)c1-c1ccccc1F (centres unmarked) [(155), 1-[1-Biphenyl-4-yl-5-(2-fluorophenyl)-1H-pyrazol-4-ylmethyl]-pyrrolidine-2-carboxamide] gave an IC50 of 1700 nM. Work on Fc1ccccc1-c1c(CCCN2CCOCC2)cnn1-c1ccc(-c2ccccc2)cc1 [(47), 4-{3-[1-Biphenyl-4-yl-5-(2-fluorophenyl)-1H-pyrazol-4-yl]propyl}morpholine] yielded an IC50 of 23 nM. CC(C)(C)OC(=O)N1CCN(Cc2cnn(-c3ccc(-c4ccccc4)cc3)c2-c2ccccn2)CC1 [(59), tert-Butyl 4-(1-biphenyl-4-yl-5-pyridin-2-yl-1H-pyrazol-4-ylmethyl)piperazine-1-carboxylate] gave an IC50 of 780 nM. Fc1ccccc1-c1c(CNC2C3CNCC32)cnn1-c1ccc(-c2ccccc2)cc1 (centres unmarked) [(192), (3-Azabicyclo[3.1.0]hex-6-yl)-[1-biphenyl-4-yl-5-(2-fluorophenyl)-1H-pyrazol-4-ylmethyl]amine] showed an IC50 of 320 nM. CN1CCN(Cc2cnn(-c3ccc(-c4ccccc4)cc3)c2-c2ccccn2)CC1 [(58), 1-(1-Biphenyl-4-yl-5-pyridin-2-yl-1H-pyrazol-4-ylmethyl)-4-methylpiperazine] showed an IC50 of 50 nM. “1-Biphenyl-4-yl-5-(2-fluorophenyl)-4-(2-methoxy-methylpyrrolidin-1-ylmethyl)-1H-pyrazole [(48)]” was tested, and the IC50 was 510 nM. For CN1CCN(Cc2cnn(-c3ccc(-c4cccnc4)cc3)c2-c2ccccc2F)CC1 [(120), 1-[5-(2-Fluorophenyl)-1-(4-pyridin-3-ylphenyl)-1H-pyrazol-4-ylmethyl]-4-methylpiperazine], the IC50 was 170 nM. O=C(CNCc1cnn(-c2ccc(-c3ccccc3)cc2)c1-c1ccccc1F)Nc1ccc([N+](=O)[O-])cc1 [(129), 2-{[1-Biphenyl-4-yl-5-(2-fluorophenyl)-1H-pyrazol-4-ylmethyl]-amino}-N-(4-nitrophenyl)acetamide] gave an IC50 of 100 nM. In the case of Fc1ccccc1-c1c(CNCc2cccnc2)cnn1-c1ccc(-c2ccccc2)cc1 [(89), [1-Biphenyl-4-yl-5-(2-fluorophenyl)-1H-pyrazol-4-ylmethyl]-pyridin-3-ylmethylamine], the IC50 is reported as 180 nM. In the case of Fc1ccccc1-c1c(CN2CCCCCC2)cnn1-c1ccc(-c2ccccc2)cc1 [(31), 1-[1-Biphenyl-4-yl-5-(2-fluorophenyl)-1H-pyrazol-4-ylmethyl]-azepan], the IC50 is reported as 48 nM. With CN1CCN(Cc2cnn(-c3ccc(-c4ccccc4F)cc3)c2-c2ccc(F)cc2)CC1 [(99), 1-[1-(2′-Fluorobiphenyl-4-yl)-5-(4-fluorophenyl)-1H-pyrazol-4-ylmethyl]-4-methylpiperazine] the IC50 was 210 nM. CN1CCN(Cc2cnn(-c3ccc(-c4cc(F)ccc4F)nc3)c2-c2ccccc2F)CC1 [(147), 1-[1-[6-(2,5-Difluorophenyl)pyridin-3-yl]-5-(2-fluorophenyl)-1H-pyrazol-4-ylmethyl]-4-methylpiperazine] was tested, and the IC50 was 430 nM. In the case of Fc1ccccc1-c1c(CN2CCNCC2)cnn1-c1ccc(C(F)(F)F)cc1 [(86), 1-[5-(2-Fluorophenyl)-1-(4-trifluoromethylphenyl)-1H-pyrazol-4-ylmethyl]piperazine], the IC50 is reported as 43 nM. For Fc1ccccc1-c1c(CNCc2nc3ccccc3[nH]2)cnn1-c1ccc(-c2ccccc2)cc1 [(133), (1H-Benzoimidazol-2-ylmethyl)-[1-biphenyl-4-yl-5-(2-fluorophenyl)-1H-pyrazol-4-ylmethyl]amine], the IC50 was 76 nM. In the case of CN1CCN(NCc2cnn(-c3ccc(-c4ccccc4)cc3)c2-c2ccccc2F)CC1 [(40), [1-Biphenyl-4-yl-5-(2-fluorophenyl)-1H-pyrazol-4-ylmethyl]-(4-methylpiperazin-1-yl)amine], the IC50 is reported as 14 nM. CN(CC(N)=O)Cc1cnn(-c2ccc(-c3ccccc3)cc2)c1-c1ccccc1F [(132), 2-{[1-Biphenyl-4-yl-5-(2-fluorophenyl)-1H-pyrazol-4-ylmethyl]-methylamino}acetamide] showed an IC50 of 920 nM. Work on CN1CCN(Cc2cnn(-c3ccc(-c4ccccc4F)cc3)c2-c2ccco2)CC1 [(103), 1-[1-(2′-Fluorobiphenyl-4-yl)-5-furan-2-yl-1H-pyrazol-4-ylmethyl]-4-methylpiperazine] yielded an IC50 of 25 nM. Fc1ccccc1-c1c(CN2CCN(Cc3ccncc3)CC2)cnn1-c1ccc(-c2ccccc2)cc1 [(184), 1-[1-Biphenyl-4-yl-5-(2-fluorophenyl)-1H-pyrazol-4-ylmethyl]-4-pyridin-4-ylmethylpiperazine] was tested, and the IC50 was 75 nM.
